Laboratory results published in paper PMC7615676, “Short-course combination treatment for experimental chronic Chagas disease” (Science translational medicine, 2023).
Where two headings read alike, the source gives them in different places.

What was measured:
[1] = tested on: T. cruzi epimastigotes bearing mutations in cytochrome b; assay: epimastigote drug sensitivity assay, cytochrome b mutant / resistant lines; assay type: cell-based, Trypanosoma cruzi; conditions: for EC50: Trypanosoma cruzi
Protocol: T. cruzi epimastigotes from the Silvio strain (MHOM/BR/78/Silvio; clone X10/7A) were grown at 28°C in RTH/FBS medium ([80]).
T. cruzi epimastigote assays carried out as described previously ([43]).
Compound-resistant cell lines were generated by subculturing clones of wild-type T. cruzi epimastigotes in the continuous presence of compound 3 or compound 5. Starting at sublethal concentrations, drug concentrations in 3 independent cultures were increased in a stepwise manner, usually by 2-fold. When parasites were able to survive and grow in compound concentrations equivalent to >30-fold their established EC50 value, they were cloned by limiting dilution in the presence of compound. Three independent clones were selected from each compound for further study.

[2] = biological target: T. cruzi complex III (epimastigote lysates) (Trypanosoma cruzi, UniProt Q9T479); assay: T. cruzi complex III assay; assay type: biochemical; conditions: decylubiquinol substrate
Sequence of T. cruzi complex III (epimastigote lysates) (Q9T479 entry or part of it, one chain of several): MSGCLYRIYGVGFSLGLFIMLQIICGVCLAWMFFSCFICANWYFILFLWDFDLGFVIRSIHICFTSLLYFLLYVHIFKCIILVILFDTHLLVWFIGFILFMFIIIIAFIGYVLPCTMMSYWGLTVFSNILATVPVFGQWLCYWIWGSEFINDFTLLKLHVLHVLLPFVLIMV
Protocol: Complex III activity within these lysates was monitored in the presence and absence of compound 3, compound 5 and related analogues from this series, using decylubiquinol as a pseudo-substrate ([43]).
Measurement of complex III activity and inhibition were performed as described previously ([43]).

[3] = tested on: chronic T. cruzi infection (CL Brener) in BALB/c mice; assay: bioluminescent mouse model of chronic Chagas disease; assay type: in vivo, Trypanosoma cruzi
Protocol: Compound 2 was evaluated in a bioluminescent mouse model of Chagas disease designed to mimic chronic infections. This model successfully differentiates the clinically used drugs from the clinically invalidated CYP51 inhibitors ([21]). Key features of this model include immunosuppression of mice following cessation of treatment to allow detection of parasite relapses, and ex vivo bioluminescence imaging that allows tissue-specific visualization of parasites. Treatments are considered efficacious if there is no evidence of bioluminescence during in vivo (mouse) and ex vivo (organ/tissue) imaging following immunosuppression ([38]). Under these experimental conditions, compound 2 was able to prevent parasite relapse in 2 of the 6 mice treated orally twice daily for 10 days at 50 mg/kg (Table S1). Increasing the dose to 100 mg/kg or extending treatment duration to 21 days provided similar partial efficacy rates.
Experiments followed a similar protocol to that described in ([21]). All animals were female (BALB/cAnNCrlC mice, 6-8 weeks old, strain code: 028, supplier: Charles River (UK)). We have previously shown that there are no differences in the bioluminescence profiles between infected males and females ([77]). Animals were maintained under specific pathogen-free conditions in individually ventilated cages. They experienced a 12-hour light/dark cycle, with access to food and water ad libitum. Mice were randomly selected and distributed into cages on arrival day by a Named Animal Care and Welfare Officer (NACWO), at LSHTM biological service facility (BSF). For efficacy experiments animals were randomly selected from the cages and ear/tail tagged on the infection day, starting from number 1. The same mouse ID was kept until the experimental endpoint. Mice were infected by i.p injection with 1x10^3 trypomastigotes derived from SCID mouse blood ([67]). To confirm infection, mice were imaged around the peak of parasite load. […] Treatment initiated in the chronic stage of infection ranging between 90 and 127 days post-infection. Drugs were administered by oral gavage (~200 μl), and vehicle only (0.5% w/v hydroxypropylmethylcellulose with 0.4% v/v Tween 80 and 0.5% v/v benzyl alcohol) was administered to control mice. Total number of animals for each study arm is shown in the relevant figures. To detect residual infection, mice were immunosuppressed using cyclophosphamide (at 200 mg/kg) by ip injection every 4 days for a maximum of three doses. For in vivo imaging, mice were injected ip with 150 mg/kg D-luciferin in Dulbecco’s Ca^2+/Mg^2+-free PBS, then anaesthetized using 2.5% (v/v) isofluorane in oxygen. Images were obtained using an IVIS Lumina II system (Caliper Life Science) 10−20 min after D-luciferin administration. The detection threshold was established from uninfected mice. Organs/tissue samples were assessed by ex vivo imaging as described previously ([21]). The limit of detection in this system is less than 20 parasites ([29]).

[4] = bioanalysis of blood samples from in vivo efficacy studies; design: species or system BALB/c mice; conditions: for AUC0-7h Day 1, unbound concentrations of compound 3 / AUC0-7h Day 5, unbound concentrations of compound 3 / Cmax Day 1, unbound concentrations of compound 3 / Cmax Day 5, unbound concentrations of compound 3: 50mg/kg bid; for AUC0-7h Day 1, unbound concentrations of compound 3 / AUC0-7h Day 5, unbound concentrations of compound 3 / Cmax Day 1, unbound concentrations of compound 3 / Cmax Day 5, unbound concentrations of compound 3 / AUC0-7h Day 1, unbound concentrations of BNZ / AUC0-7h Day 5, unbound concentrations of BNZ / Cmax Day 1, unbound concentrations of BNZ / Cmax Day 5, unbound concentrations of BNZ: 5 days; for AUC(0-t) / Cmax: BALB/c, mouse, whole blood, po, 50 mg/kg, compound 3 50mg/kg bid; for AUC0-7h Day 1, unbound concentrations of BNZ / AUC0-7h Day 5, unbound concentrations of BNZ / Cmax Day 1, unbound concentrations of BNZ / Cmax Day 5, unbound concentrations of BNZ: 30mg/kg qd
Protocol: Following the first daily dose on day 1 and last day of treatment, serial blood samples were taken by the tail vein from all treated mice pre-dose, then 30 minutes, 1, 2, 4, and 8 hours post-dose, mixed with two volumes of distilled water and analyzed for test compound. Quantification of compounds was performed by means of LC/MSMS and exposure parameters namely Cmax and AUClast were estimated using Phoenix 64 (Pharsight Certara).

[5] = plasma protein binding, equilibrium dialysis; assay type: in vitro ADME; conditions: pH 7.4, mouse plasma, read-out: Mouse PPB % (converted)
Protocol: In vitro plasma protein binding was measured in mouse and human plasma using equilibrium dialysis at a nominal concentration of 2 μM. The RED inserts were placed in the 48 wells of the Teflon Plate (Pierce). Samples were prepared by mixing the test compound with plasma at the appropriate concentrations to yield a final drug concentration of 2 μM. Triplicate aliquots of plasma containing compounds at a concentration of 2 μM were pipetted to plasma side (red) of the insert, and PBS (phosphate buffered saline) pH 7.4 was placed into the receiver side (white) of the insert. The plate was covered with the sealing tape and incubated in a 37 °C orbital shaker water bath at approximately 150 rpm for 4 h. Following incubation, samples were prepared in a mixed matrix configuration. Aliquots of samples were pipetted into 96-well plates, and precipitation buffer was added to protein precipitate the samples. Samples were vortexed to mix, then centrifuged for 15 min at 3700 rpm and 4 °C. The supernatant was assayed directly by LC−MS/MS. The following equation was used to calculate the percentage bound drug fraction using this equilibrium dialysis method
% unbound = (buffer chamber]/[plasma chamber) x100

[6] = dosing group 3 + BNZ (30mg/kg qd)
[7] = dosing group BNZ+ 3 (50mg/kg bid)

`COc1cc(Cl)ccc1-c1c(C)[nH]c2nc(N)nc(C)c12` [Compound 3, 5-(4-Chloro-2-methoxyphenyl)-4,6-dimethyl-7H-pyrrolo[2,3-d]pyrimidin-2-amine] gave an EC50 ([1]; read-out: EC50 F222L) of 1120 ± 63 nM, an EC50 ([1]; read-out: EC50 G36C/L197F cytb line) of 3 ± 0.1 nM and an EC50 ([1]; read-out: EC50 G36C/L197I cytb line) of 258 ± 7 nM. For the same compound, the EC50 ([1]; read-out: EC50 L197F cytb line) was 3.7 ± 0.1 nM, the EC50 ([1]; read-out: EC50 L197I) was 115 ± 7 nM and the EC50 ([1]; read-out: EC50 compound 3-resistant clone RES1) was 107 ± 5.4 nM. The EC50 ([1]; read-out: EC50 compound 3-resistant clone RES3) was 166 ± 14 nM, the “fold change from WT, L197I” value ([1]; compound 3-resistant line (L197I)) was 19 fold and the “fold change from WT, F222L” value ([1]; compound 5-resistant line (F222L)) was 183 fold. The “cross-resistance of G36C and L197I epimastigotes” value ([1]; versus wild-type) was 23 fold, the IC50 [2] was 2 ± 0.3 nM and the “No. cured/ no. tested” value ([3]; 50 mg/kg bid oral, 10 days) was 4/6. For the same compound, the “No. cured/ no. tested” value ([3]; 50 mg/kg bid oral, 20 days (changed to 11 bid + 9 qd)) was 2/6, the “tolerability in infected mice” value ([3]; 50 mg/kg bid, 20-day regimen) was “tolerability issues” and the “AUC0-7h Day 1, unbound concentrations of compound 3” value [4, 6] was 2234 ± 509 ng·h/mL. For the same compound, the “AUC0-7h Day 5, unbound concentrations of compound 3” value [4, 6] was 5525 ± 663 ng·h/mL, the “Cmax Day 1, unbound concentrations of compound 3” value [4, 6] was 412 ± 88 ng/mL and the “Cmax Day 5, unbound concentrations of compound 3” value [4, 6] was 977 ± 129 ng/mL. The “AUC0-7h Day 1, unbound concentrations of compound 3” value ([4]; dosing group 3 alone) was 3024 ± 619 ng·h/mL, the “AUC0-7h Day 5, unbound concentrations of compound 3” value ([4]; dosing group 3 alone) was 6094 ± 870 ng·h/mL and the “Cmax Day 1, unbound concentrations of compound 3” value ([4]; dosing group 3 alone) was 530 ± 95 ng/mL. For the same compound, the “Cmax Day 5, unbound concentrations of compound 3” value ([4]; dosing group 3 alone) was 1014 ± 185 ng/mL, the AUC(0-t) ([4]; 10-day study, read-out: AUC0-7h Day 1) was 1800 ± 243 ng·h/mL and the AUC(0-t) ([4]; 10-day study, read-out: AUC0-7h last day) was 7790 ± 1560 ng·h/mL. The Cmax ([4]; 10-day study, read-out: Cmax Day 1) was 325 ± 59 ng/mL, the Cmax ([4]; 10-day study, read-out: Cmax last day) was 1250 ± 259 ng/mL and the AUC(0-t) ([4]; 20-day study, read-out: AUC0-7h Day 1) was 2740 ± 388 ng·h/mL. The AUC(0-t) ([4]; 20-day study, read-out: AUC0-7h last day) was 4920 ± 479 ng·h/mL, the Cmax ([4]; 20-day study, read-out: Cmax Day 1) was 480 ± 69 ng/mL and the Cmax ([4]; 20-day study, read-out: Cmax last day) was 810 ± 75 ng/mL. It also gave a fraction unbound at 4 h, 2 μM [5] of 0.03.
In the case of `O=C(Cn1ccnc1[N+](=O)[O-])NCc1ccccc1` [Benznidazole, reference compound], the “No. cured/ no. tested” value ([3]; 100 mg/kg qd oral, 10 days) is reported as 3/3, the “No. cured/ no. tested” value ([3]; 100 mg/kg qd oral, 20 days) is reported as 6/6 and the “AUC0-7h Day 1, unbound concentrations of BNZ” value ([4]; dosing group BNZ alone) is reported as 18788 ± 3214 ng·h/mL. The “AUC0-7h Day 5, unbound concentrations of BNZ” value ([4]; dosing group BNZ alone) was 12583 ± 1812 ng·h/mL, the “Cmax Day 1, unbound concentrations of BNZ” value ([4]; dosing group BNZ alone) was 6928 ± 1302 ng/mL and the “Cmax Day 5, unbound concentrations of BNZ” value ([4]; dosing group BNZ alone) was 5230 ± 1373 ng/mL. The “AUC0-7h Day 1, unbound concentrations of BNZ” value [4, 7] was 15881 ± 4211 ng·h/mL, the “AUC0-7h Day 5, unbound concentrations of BNZ” value [4, 7] was 11350 ± 4513 ng·h/mL and the “Cmax Day 1, unbound concentrations of BNZ” value [4, 7] was 5188 ± 1385 ng/mL. For the same compound, the “Cmax Day 5, unbound concentrations of BNZ” value [4, 7] was 3725 ± 1302 ng/mL.
